For 110 compounds, melting point results are on record in a melting point compilation (Tetko et al.).

The melting point is the temperature, or range, at which the solid turns liquid.

In turn, `ClCOCCl` displayed a melting point of -41.5 °C.
Compound `S=c1cn[nH]c(=S)[nH]1` returned a melting point of 209 to 210 °C.
Consider `Nc1cc(F)ccc1C(F)(F)F`, for which the melting point was determined as 31 °C.
As for `c1ccc2[nH]ncc2c1`, the melting point was 148 °C.
With `CCOC(=O)c1nn(-c2ccc(C)cc2)c(C)c1C(=O)C1=NOC2C(=O)N(c3cc(Cl)ccc3Cl)C(=O)C12` (stereo not given), the melting point came to 225 °C.
For the compound `COc1cc(Br)c(C=CC(=O)O)cc1OC`, the melting point was in the range of 253 to 259 °C.
The figure for `CNc1ccc2cc3ccc4c(c3nc2c1CO)COCN4` is 105 °C; for `CCOC(=O)c1c(-c2ccccc2)csc1NC(=O)c1ccc(Cl)cc1` it is 171 to 172 °C; for `CC(C)(C)c1ccc(-c2ccc(Br)cc2)cc1` it is 142 °C.
`O=C(Cc1ccccc1)c1ccc(O)cc1O`: the melting point fell in the range of 112 to 117 °C.
Then `COC1=C(OC)/C(=C/C=O)OC1=O`, with 60 to 62 °C; and `Cc1cccc(C(=O)N(NC(=O)c2ccccc2)C(C)(C)C)c1`, with 211 °C.
Turning to `S=C=Nc1ccc2c(c1)OCO2`, the melting point lay within 57 to 59 °C.
Turning to `CCCCCOc1ccc(-c2ccc(C#N)cc2)cc1`, the melting point stood at 48 °C.
Turning to `Fc1nc(F)nc(F)n1`, the melting point was -38 °C.
`Cc1ccc(-c2cc(-c3ccccn3)nc(-c3ccccn3)c2)cc1`: the melting point came out at 169 °C.
As for `O=C1NC2CCCCC12` (stereo not given), the melting point was 48 to 50 °C.
Then `Nc1cccc(Cl)c1C(=O)O`, with 159 °C.
With `NC(=O)C12CC3CC(CC(C3)C1)C2`, the melting point came out at 189 °C.
The figure for `O=c1[nH]c(=O)n(C2CCC(CO)O2)cc1Br` (stereo not given) is 180 °C.
Then `COc1cc(Cl)c(NC(C)=O)c(Cl)c1`, with 186 to 188 °C.
`Cn1c(/C(C#N)=N/Nc2c(Br)cc(Br)cc2Br)nc2ccccc21` came in with a melting point of 180 °C.
`COCC(=O)N(c1c(C)cccc1C)C(C)C(=O)OC` (stereo not given) displayed a melting point of 71 °C.
Then `NC(=S)Nc1ccc(C(F)(F)F)cc1`, with 144 to 145 °C.
The figure for `COc1ccccc1-c1nnc2n1NC(c1ccccc1O)S2` (stereo not given) is 205 °C; for `NC(=O)NN=CC(=O)c1ccc(C(=O)C=NNC(N)=O)c([N+](=O)[O-])c1` it is 241 °C.
Then `CC1(O)CCC2C3CCC4=CC(=O)CCC4(C)C3(F)C(O)CC21C` (stereo not given), with 270 °C; and `COc1ccc(C2C3=C(CCCC3)OC3=C2CCCC3)cc1`, with 104 °C.
`Nc1ccncc1Br` had a melting point of 67 to 71 °C.
`N#Cc1c(Cl)cccc1[N+](=O)[O-]`: the melting point was determined as 121 °C.
Then `Clc1cc(Cl)c2oc3c(Cl)c(Cl)cc(Cl)c3c2c1`, with 204 °C; and `O=C(O)C(F)(F)C(F)(F)C(F)(F)C(F)(F)C(=O)O`, with 134 °C; and `OCCCCCCCCCCCCBr`, with 34 °C.
Then `Cc1ccc2c(CCl)c(C)ccc2c1CCl`, with 228 °C; and `CN1C2CC(=O)CC1C(O)C2` (stereo not given), with 120 to 123 °C; and `O=C(O)c1ccccc1C(c1ccc(O)cc1)c1ccc(O)cc1`, with 238 °C.
Then `Nc1c(Cl)c(F)nc(OCC(=O)O)c1Cl`, with 232 °C; and `CC1=C(C)C(C(C)C)C=C1Cc1ccccc1` (stereo not given), with 54 °C.
`CCOC(=O)c1sc2nc(C)cc(C)c2c1N`: the melting point lay in the range of 157 to 158 °C.
In the case of `CCOC(=O)COc1cccc2ccccc12`, the melting point was 56.5 °C.
The compound `COc1ccc(C(=O)O)c(O)c1` displayed a melting point of 157 to 159 °C.
The figure for `CC(=O)N(c1onc(C)c1C)S(=O)(=O)c1ccc(N)cc1` is 194 °C; for `Nc1c(C=Cc2ccccc2)ccc2c1C(=O)c1ccccc1C2=O` it is 214 °C.
Regarding `Nc1cc(Cl)c(S(N)(=O)=O)cc1S(N)(=O)=O`, the melting point turned out to be 254 °C.
In turn, `CN(C)c1ccc(C2(c3ccc(N(C)C)cc3)OC(=O)c3cc(N(C)C)ccc32)cc1` gave a melting point of 182 °C.
The compound `N#CCC(=O)N1CCCC1` returned a melting point of 72.5 °C.
The figure for `CCCCC(C)(O)CC` (stereo not given) is -83 °C; for `CC(=O)Nc1ccc(CC(=O)O)cc1` it is 173 °C; for `COC(=O)C1=C(C)NC(=O)N(C=O)C1c1ccccc1` (stereo not given) it is 236 °C.
The figure for `O=Cc1ccc2c(c1[N+](=O)[O-])C(=O)c1c(Cl)c(Cl)c(Cl)c(Cl)c1C2=O` is 265 to 268 °C.
`FC(F)(F)c1ccc(-n2ccnc2)cc1` gave a melting point of 71 to 73 °C.
On to `Nc1nsc(-c2ccc(Cl)cc2)n1`, for which the melting point was 201 to 202 °C.
The compound `O=C1OC(c2ccccc2)=N/C1=C\c1ccc(Br)o1` returned a melting point of 122 °C.
With `CN(C)c1ccc(C=C2N=C(c3ccccc3)OC2=O)cc1`, the melting point fell in the range of 204 to 205 °C.
In turn, `CCOC(=O)C=C(C)OCC` displayed a melting point of 30 °C.
Regarding `C=C1c2cc(OC)c(OC)cc2CCN1C(C)=O`, the melting point lay within 107 to 109 °C.
In turn, `Nc1ccc([N+](=O)[O-])c(C(=O)O)c1` had a melting point of 234 to 242 °C.
Then `O=Cc1ccc(-c2nccs2)cc1`, with 90 to 91 °C; and `N#Cc1cc(Br)ccc1F`, with 79 °C.
`COc1cc2nnc(/C=C/C(C)=O)c(-c3ccc(C)o3)c2cc1OC` gave a melting point of 209 to 210 °C.
Regarding `O=C(Cc1ccccc1)c1ccc2c3c(cccc13)CC2`, the melting point was determined as 114 °C.
The figure for `O=C(O)C(Cl)(Cl)CCl` is 65.5 °C; for `COc1c2occc2cc2ccc(=O)oc12` it is 148 °C.
The figure for `Nc1nc(-c2cccc3ccccc23)cs1` is 157 °C; for `CCCC(C)C(O)CC` (stereo not given) it is -123 °C; for `NC(C(=O)O)c1ccc(O)cc1` (stereo not given) it is 240 °C.
Compound `CNCC(O)c1ccccc1` (racemic) showed a melting point of 74 to 76 °C.
Turning to `CC1=NN(c2ccccc2)C(=O)C1Cc1ccccc1O` (stereo not given), the melting point was determined as 140 °C.
The compound `Sc1cc(Cl)c(Cl)cc1Cl` registered a melting point of 117 to 118 °C.
In turn, `COc1c(OC)c(=O)c1=O` returned a melting point of 55 to 57 °C.
The figure for `CC(CO)NC(=O)OC(C)(C)C` (stereo not given) is 60 °C; for `CC1=NN(c2ccccc2)C(=O)C1=C(Br)C1C(=O)N(c2ccccc2)N=C1C` (stereo not given) it is 218 to 219 °C; for `ClC(Cl)=C(Cl)C(Cl)=C(Cl)Cl` it is -21 °C.
Then `CCOC(=O)C(=O)C(C#N)C(=O)OCC` (stereo not given), with 88 to 90 °C; and `O=C(Nc1ccccc1)N(C(=O)C1Cc2ccccc21)c1ccccc1` (stereo not given), with 158 °C.
Then `Cc1cc(C)nc(Nc2ccccc2)n1`, with 96.3 °C; and `CCCCNC`, with -75 °C.
As for `CCCCCC(=O)c1ccccc1`, the melting point is 27 °C.
In the case of `Cc1noc(-c2ccc(C(=O)Cl)cc2)n1`, the melting point is 115 to 117 °C.
Then `COC(=O)c1sc(-c2ccc(C(C)(C)C)cc2)cc1N`, with 156 to 157 °C.
`Cn1ccc2cc(N)ccc21`: the melting point is 102 to 103 °C.
For the compound `O[C@H](C1CCCCC1)[C@H](O)C1CCCCC1`, the melting point was in the range of 136 to 141 °C.
As to `CCCCCCCCSCCO`, the melting point came to 0 °C.
The compound `CCOC(=O)c1cnc2cc(C)nn2c1C` displayed a melting point of 100 to 101 °C.
The figure for `C#CCCCCCCCCCCC` is -5 °C.
Then `CN(C)S(=O)(=O)c1cccc(C(=O)c2ccccc2)c1`, with 82 to 84 °C; and `Cc1ccc(NN=C2C(=O)NN(c3ccccc3)C2=O)cc1`, with 277 °C; and `CCCC(C(N)=O)n1nc2ccccc2n1` (stereo not given), with 126 °C.
The compound `Fc1ccccc1Cl` showed a melting point of -43 °C.
Then `CC1OC(OC2C(Oc3cc(O)c4c(c3)OC(c3ccc(O)cc3)CC4=O)OC(CO)C(O)C2O)C(O)C(O)C1O` (stereo not given), with 166 °C.
Then `N#CC1(c2ccc(F)cc2Cl)CCCCC1`, with 58 to 65 °C; and `O=C(O)C(F)(F)C(F)(F)C(F)(F)C(F)(C(F)(F)F)C(F)(F)F`, with 13 °C; and `Cc1cc(-c2ccccc2)nc2cc3nc(-c4ccccc4)cc(C)c3cc12`, with 284 to 285 °C.
Then `CCOC(=O)c1cc2cc(C(F)(F)F)c(C(F)(F)F)cc2c(=O)o1`, with 193 °C.
Turning to `Clc1ccc2cccc(Cl)c2c1`, the melting point was 63.5 °C.
The figure for `Ic1cccc(-c2ccccc2)c1` is 26.5 °C.
The figure for `CCCSc1ncccc1C(=O)O` is 161 °C; for `Cc1ccc(Nc2ccc([N+](=O)[O-])cc2[N+](=O)[O-])cc1` it is 140 °C.
The figure for `Nc1cc(C(=O)O)ccc1C(=O)O` is 324 °C; for `CC(=O)SCC(C)C(=O)O` (stereo not given) it is 5 °C; for `Cn1c(=O)c(C2=NNC(=O)C2=Cc2ccccc2O)c(O)c2ccccc21` it is 240 °C.
As to `CC(=O)C=C(C)C`, the melting point is -53 °C.
With `O=C(Nc1cccnc1Cl)c1cccc(C(F)(F)F)c1`, the melting point fell in the range of 83 to 85 °C.
Then `CCOC(=O)c1c(-c2ccccc2)csc1NC(=O)CN(CC)CC`, with 93 to 94 °C; and `CSc1nc2ncc(C(=O)O)c(N)n2n1`, with 278 to 281 °C.
Regarding `CNc1cc(=O)oc2ccccc12`, the melting point worked out at 198 °C.
The figure for `CN(C)c1ccn2c(=O)c3ccccc3cc2c1` is 157 °C; for `CCN(CC)c1ccc(Cl)cc1` it is 45.5 °C.
With `CNS(=O)(=O)c1ccc(C)cc1`, the melting point was determined as 78.5 °C.
Then `Cc1ccc(C)c(Cl)c1`, with 1.6 °C.
